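Step 1: Grow cells in 96-well plates. Step 2: Expose to compound for 48 hours at 5 concentrations. Step 3: Interpolate endpoints linearly; if unreached, use highest concentration. GI50 = concentration required for 50% inhibition of growth.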 Active and inactive are the calls of the source. No stated cut-off is given here; in the data, active = GI50 up to about 1.1 µM and inactive = higher.
Columns and labels:
Test in all cases: NCI-60 cell line screen, 48 h
[1] = test system: 786-0
[2] = test system: CAKI-1
[3] = test system: EKVX
[4] = test system: HCT-116
[5] = test system: HCT-15
[6] = test system: HT-29
[7] = test system: K562
[8] = test system: MDA-MB-231
[9] = test system: Malme-3M
[10] = test system: NCI-H23
[11] = test system: NCI-H460
[12] = test system: OVCAR-8
[13] = test system: PC-3
[14] = test system: SK-MEL-2
[15] = test system: SNB-19
[16] = test system: SR
[17] = test system: SW-620
[18] = test system: T47D
[19] = test system: TK-10
[20] = test system: UO-31

Row | SMILES | GI50 [1] | GI50 [2] | GI50 [3] | GI50 [4] | GI50 [5] | GI50 [6] | GI50 [7] | GI50 [8] | GI50 [9] | GI50 [10] | GI50 [11] | GI50 [12] | GI50 [13] | GI50 [14] | GI50 [15] | GI50 [16] | GI50 [17] | GI50 [18] | GI50 [19] | GI50 [20]
1 | COC(=O)c1ccc(-n2c(C)nc(=O)c(-c3ccccc3)c2C)cc1 | > 100 µM (inactive) | > 100 µM (inactive) | > 100 µM (inactive) | > 100 µM (inactive) | > 100 µM | > 100 µM (inactive) | > 100 µM (inactive) | > 100 µM (inactive) | > 100 µM (inactive) | > 100 µM (inactive) | > 100 µM (inactive) | > 100 µM (inactive) | > 100 µM (inactive) | 30.7 µM (inactive) | > 100 µM (inactive) | > 100 µM (inactive) | > 100 µM (inactive) | > 100 µM (inactive) | > 100 µM (inactive) | > 100 µM (inactive)
2 | CCOC(=O)[C@@H]1C[C@H]1c1ccc(O)c(O)c1 | 41.4 µM (inactive) | 29.7 µM (inactive) | > 100 µM (inactive) | 14.4 µM (inactive) | 33.6 µM | 55.5 µM (inactive) | 10.9 µM (inactive) | 23.2 µM (inactive) | 31.8 µM (inactive) | 4.74 µM (inactive) | 58.2 µM (inactive) | 37.9 µM (inactive) | 14.6 µM (inactive) | 18.2 µM (inactive) | > 100 µM (inactive) | 45.3 µM (inactive) | 18.6 µM (inactive) | 30.1 µM (inactive) | 20.7 µM (inactive) | 31.3 µM (inactive)
3 | C[Si](C)(C)CCOCN(C(=O)C1=CCC2(CC1)OCCO2)c1ccccc1I | 17.7 µM (inactive) | 24.2 µM (inactive) | 14.8 µM (inactive) | 14.1 µM (inactive) | 17.8 µM | 34.3 µM (inactive) | 8.02 µM (inactive) | 22.8 µM (inactive) | 35.7 µM (inactive) | 18.6 µM (inactive) | 20 µM (inactive) | 32.5 µM (inactive) | 12.6 µM (inactive) | 17.5 µM (inactive) | 19.2 µM (inactive) | 15.8 µM (inactive) | 22.3 µM (inactive) | 12.8 µM (inactive) | 27.6 µM (inactive) | 19.4 µM (inactive)
4 | N#Cc1c(-c2ccc(Cl)cc2)c2c([nH]c1=O)-c1cc([N+](=O)[O-])ccc1CCC2 | 25.1 µM (inactive) | 19.9 µM (inactive) | 17.1 µM (inactive) | 14.3 µM (inactive) | 14.3 µM | 25.4 µM (inactive) | 35.4 µM (inactive) | 22.4 µM (inactive) | 25.7 µM (inactive) | 15.2 µM (inactive) | 14.1 µM (inactive) | 20.5 µM (inactive) | 29.4 µM (inactive) | 18 µM (inactive) | 20.5 µM (inactive) | 28.4 µM (inactive) | 33.2 µM (inactive) | 30.9 µM (inactive) | 34.8 µM (inactive) | 16 µM (inactive)
5 | COc1ccc(COCC[C@H](C)OC2OC(CO[Si](C)(C)C(C)(C)C)C(O)C(O)C2O)cc1 (stereo not given in full) | > 100 µM (inactive) | > 100 µM (inactive) | > 100 µM (inactive) | > 100 µM (inactive) | > 100 µM | > 100 µM (inactive) | > 100 µM (inactive) | > 100 µM (inactive) | > 100 µM (inactive) | > 100 µM (inactive) | > 100 µM (inactive) | > 100 µM (inactive) | 72.9 µM (inactive) | > 100 µM (inactive) | > 100 µM (inactive) | > 100 µM (inactive) | > 100 µM (inactive) | > 100 µM (inactive) | > 100 µM (inactive) | 81.8 µM (inactive)
6 | COC(=O)c1sc2c(c1C(=O)OC)/C(=N/c1ccc(OC)cc1)S/C2=N\c1ccc(OC)cc1 | 0.426 µM (active) | 2.05 µM (inactive) | 1.55 µM (inactive) | 0.451 µM (active) | 0.452 µM | 0.522 µM (active) | 0.389 µM (active) | 0.853 µM (active) | 1.74 µM (inactive) | 1.57 µM (inactive) | 1.33 µM (inactive) | 0.944 µM (active) | 0.462 µM (active) | 0.624 µM (active) | 1.52 µM (inactive) | 0.485 µM (active) | 0.224 µM (active) | 0.982 µM (active) | 1.62 µM (inactive) | 0.865 µM (active)
7 | COC(=O)c1cc2ccc(OC(C)=O)c(OC(C)=O)c2cn1 | 18.5 µM (inactive) | 20.8 µM (inactive) | 22.6 µM (inactive) | 17.3 µM (inactive) | 20.4 µM | 23.9 µM (inactive) | 2.72 µM (inactive) | 4.01 µM (inactive) | 8.07 µM (inactive) | 18 µM (inactive) | 21.1 µM (inactive) | 7.64 µM (inactive) | 20.7 µM (inactive) | 18.3 µM (inactive) | > 10 µM (inactive) | 2.65 µM (inactive) | 3.64 µM (inactive) | > 10 µM (inactive) | 20.6 µM (inactive) | 15.8 µM (inactive)
8 | CC(C)C(N)(C(=O)O)c1ccccc1 (stereo not given) | > 100 µM (inactive) | > 100 µM (inactive) | > 100 µM (inactive) | > 100 µM (inactive) | > 100 µM | > 100 µM (inactive) | > 100 µM (inactive) | > 100 µM (inactive) | > 100 µM (inactive) | > 100 µM (inactive) | > 100 µM (inactive) | > 100 µM (inactive) | > 100 µM (inactive) | > 100 µM (inactive) | > 100 µM (inactive) | > 100 µM (inactive) | > 100 µM (inactive) | > 100 µM (inactive) | > 100 µM (inactive) | > 100 µM (inactive)
9 | O=[N+]([O-])c1ccc2c(c1)N=C1OC(c3c[nH]c4ccc(COc5ccccc5)cc34)C(O)=C1N2 (stereo not given) | 53.8 µM (inactive) | > 100 µM (inactive) | > 100 µM (inactive) | 72.8 µM (inactive) | > 100 µM | > 100 µM (inactive) | 3.73 µM (inactive) | 56.6 µM (inactive) | > 100 µM (inactive) | > 100 µM (inactive) | > 100 µM (inactive) | > 100 µM (inactive) | > 100 µM (inactive) | > 100 µM (inactive) | > 100 µM (inactive) | 7.71 µM (inactive) | > 100 µM (inactive) | > 100 µM (inactive) | 59.2 µM (inactive) | > 100 µM (inactive)
10 | CCOP(=O)(OCC)C(C)(CC)NC1=NC(C(F)(F)F)(C(F)(F)F)NC(=O)N1 (stereo not given) | > 100 µM (inactive) | > 100 µM (inactive) | > 100 µM (inactive) | > 100 µM (inactive) | > 100 µM | > 100 µM (inactive) | > 100 µM (inactive) | > 100 µM (inactive) | > 100 µM (inactive) | > 100 µM (inactive) | > 100 µM (inactive) | > 100 µM (inactive) | > 100 µM (inactive) | > 100 µM (inactive) | > 100 µM (inactive) | > 100 µM (inactive) | > 100 µM (inactive) | 82 µM (inactive) | > 100 µM (inactive) | > 100 µM (inactive)
11 | CSCCC(N)C(=O)NCCNc1ccc(NCCNC(=O)C(N)CCSC)c2c1C(=O)c1ccccc1C2=O (stereo not given) | 0.308 µM (active) | 1.03 µM (active) | 2.46 µM (inactive) | 0.424 µM (active) | 1.22 µM | 0.535 µM (active) | 1.42 µM (inactive) | 1.16 µM (inactive) | 1.89 µM (inactive) | 1.05 µM (active) | 0.351 µM (active) | 0.441 µM (active) | 1.84 µM (inactive) | 3.41 µM (inactive) | 0.927 µM (active) | 0.197 µM (active) | 1 µM (active) | 2.5 µM (inactive) | 2.09 µM (inactive) | 1.41 µM (inactive)
12 | COc1cccc(C(=O)Oc2ccc(OS(=O)(=O)c3ccc(C)cc3)cc2)c1C#N | 86.9 µM (inactive) | > 100 µM (inactive) | 59.8 µM (inactive) | 41.7 µM (inactive) | 74 µM | 78.5 µM (inactive) | 43 µM (inactive) | 65.6 µM (inactive) | 32.4 µM (inactive) | 50.4 µM (inactive) | 49.5 µM (inactive) | 66.8 µM (inactive) | 43.3 µM (inactive) | 66.5 µM (inactive) | > 100 µM (inactive) | 47.9 µM (inactive) | > 100 µM (inactive) | 20.1 µM (inactive) | 78.7 µM (inactive) | 28.3 µM (inactive)
13 | COc1cc2c(cc1OCCCCOc1cc3c(cc1OC)C(=O)N1CCC[C@H]1C(=O)N3)N=C[C@@H]1CCCN1C2=O | 13.2 µM (inactive) | 11.6 µM (inactive) | 12.5 µM (inactive) | 16.8 µM (inactive) | 12.2 µM | 16.6 µM (inactive) | 2.28 µM (inactive) | 3.11 µM (inactive) | 9.79 µM (inactive) | 12.8 µM (inactive) | 15.8 µM (inactive) | 14.7 µM (inactive) | 6.05 µM (inactive) | 5.57 µM (inactive) | 8.18 µM (inactive) | 2.17 µM (inactive) | 3.29 µM (inactive) | 5.52 µM (inactive) | 12.9 µM (inactive) | 14.8 µM (inactive)
14 | COc1ccc(/C=C/c2cc(O)cc(OC)c2)cc1 | > 100 µM (inactive) | > 100 µM (inactive) | 55.3 µM (inactive) | > 100 µM (inactive) | 0.855 µM | > 100 µM (inactive) | 67.9 µM (inactive) | 27.8 µM (inactive) | 86.3 µM (inactive) | > 100 µM (inactive) | 84.5 µM (inactive) | > 100 µM (inactive) | 68.5 µM (inactive) | > 100 µM (inactive) | > 100 µM (inactive) | > 100 µM (inactive) | > 100 µM (inactive) | > 100 µM (inactive) | > 100 µM (inactive) | > 100 µM (inactive)

From ChEMBL document CHEMBL1201862, “PubChem BioAssay data set” (2004)
